Laboratory results reported in patent US11912691B2, “Tocotrienols derivates, methods and uses thereof” (GLOBAL SCIENTIFIC, priority 2020, dated 2024).
Entries after “also recorded” stand apart in the source; their conditions may differ. Read-outs that look alike come from different tables or passages of the source. Values belong to the compound of their own block, whether it stands above or below them.

Key:
[1] = Chemical stability in a cosmetic formulation, accelerated aging test (45° C., 3 months); details: for % of the Compound after 3 Months: 0.1% m/m in cosmetic formulation, oven at 45° C., HPLC; for Stability in the cosmetic formulation (in words): 45° C., ferulyl compound also in cold storage; for % of the Compound after 3 Months / Stability in the cosmetic formulation (in words): 3 months
Procedure: In an embodiment, the chemical stability of the modified molecules was evaluated in accelerated degradation tests. For this purpose, the test molecules were formulated in a cosmetic relevant formulation and its degradations were assessed for a period of 3 months.
In an embodiment, the cosmetic formulation may comprise water, jojoba seed oil, butylene glycol, squalane, sodium hyaluronate, cetearyl alcohol and a carbomer.
In an embodiment, test molecules were added to the cosmetic formulation at 0.1% m/m level, thoroughly homogenized to ensure uniform dispersion and stored in closed glass bottles in an oven at 45° C. for 3 months. In order to evaluate homogeneity and stability, 3 samples were collected from random positions immediately after preparation and at each time point evaluated. The quantification of the test molecules was performed by HPLC.
In an embodiment, the preparation of the mixtures for evaluation of the stability was performed according to the following experimental protocol. The mass of compound was weighed and dissolved in 2-(2-ethoxyethoxy)ethanol (also weighed) and added to a known mass of moisturizer product. The mixture was homogenized, and 3 samples were collected to confirm homogenous distribution and initial concentration of modified molecules. The mixtures were then stored in an oven at 45° C. for 3 months (Table IV).
In an embodiment, the stability of the test molecules in the cosmetic formulation was determined. The test mixtures were sampled in triplicate from random zones. The samples were prepared for analysis by solubilizing them in acetonitrile and the quantification of the modified and non-modified tocopherol and tocotrienol molecules was performed by HPLC. The % of the initial compounds is described in Table IV.

[2] = for Rank of the nicotinic acid level in the permeate solutions: within molecules without a linker / within molecules with a linker
Procedure: In an embodiment, the penetration into human skin and the conversion of the modified tocotrienols and modified α-tocotrienols with linkers molecules in the human skin were evaluated by permeation experiments using Franz diffusion cells. The conversion profile was evaluated and quantified by measuring nicotinic acid or nicotinyl alcohol in the permeate solutions.
In an embodiment, the skin permeation of the modified compounds was assessed. The permeation tests were performed with full thickness human skin. These samples were obtained at a local hospital, from healthy donors undergoing cosmetic surgery. The excised skin was stored in a PBS solution containing 10% antibiotic and maintained at 4° C., until further processing in the laboratory. When the skin sample was received, the underlying fat tissue was removed and discarded. The remaining skin (dermis and epidermis layers) was cut into pieces of approximately 1.5×1.5 cm. When the permeation experiments were executed with fresh skin, the samples were immediately used. Otherwise, the pre-cut skin samples were frozen at −80° C. and stored for further use. When reclaiming the frozen skin samples, the samples were removed from storage and thawed to room temperature for 1 hour before further manipulation.
The permeation experiments were performed in Franz diffusion cells. These diffusion cells are constituted by a donor compartment, where the formulation containing the permeate molecule is placed, and a receptor compartment containing the receptor fluid where the permeate molecule is collected and accumulated in time. The skin sample is placed between the donor and receptor compartments and is also equipped with a sampling access that allows for the collection of samples (a certain volume of the receptor fluid) without requiring the disassembly of the cell and therefore allows for the permeation experiment to continue (FIG. 3).
At the start of the experiment, the receptor compartment is filled with the receptor fluid, the skin sample is placed in place with care so as to not form air bubbles underneath. The donor receptor is positioned in place and clamped. The assembly is then placed in the thermostatic (37° C.) bath for 30 min to allow temperature equilibration. After the equilibration time, the level of the receptor fluid is adjusted as necessary. The receptor compartment is equipped with a magnetic mixer, ensuring the solution homogeneity during the course of the permeation experiment.
In an embodiment, the permeate solutions are monitored for the presence of nicotinic acid released from the modified tocopherol and tocotrienols molecules. The amount of nicotinic acid is quantified by HPLC using an ion pairing method. The concentration of nicotinic acid is calculated from a standard calibration curve of known nicotinic acid concentration solutions measured in the same conditions. The HPLC analysis is performed on a Knauer chromatograph consisting of 3 modules: Smartline manager 5000, Smartline pump 1000 and Smartline UV Detector 2600. The UV detector is fitted with a photodiode array (PDA) which allows for the continuous monitoring from 190-450 nm. The online chromatograms are monitored at 254 nm. The eluent comprises an ion-pairing eluent (50 mM of tetrabutylammonium hydroxide (TBAOH), pH corrected to 7.4 with hydrogenphosphate dibasic ([…])) containing 10% of acetonitrile at a flow of 1 mL/min and the column used is an Atlantis T3 4.6×250 mm (with guard column of same type 4.6×20 mm) at 30° C.
In an embodiment, the skin permeation experiments are performed with formulations of different concentrations of modified tocotrienol and tocopherol molecules. The modified molecules are dissolved at concentrations of 5% and 10% m/m in a mixture of equal volumes of 2-(2-ethoxyethoxy)ethanol and propylene glycol and 150 μl of these solutions are applied on the skin samples.

[3] = modified α-tocotrienols with linkers, donor solution 10% m/m, 24 hours
[4] = modified α-tocotrienols with linkers, donor solution 10% m/m, 48 hours
[5] = donor solution 5% m/m, 48 hours, human skin, Franz cell
[6] = donor solution 10% m/m, 48 hours, human skin, Franz cell

Compound: Cc1c(C)c2c(c(C)c1O)CC[C@@](C)(CCC[C@H](C)CCC[C@H](C)CCCC(C)C)O2 [α-tocopherol, reference compound]
% of the Compound after 3 Months [1]: 44%

Compound: Cc1c(C)c2c(c(C)c1OC(=O)c1cccnc1)CC[C@@](C)(CCC[C@H](C)CCC[C@H](C)CCCC(C)C)O2 [α-tocopheryl nicotinate, reference compound]
% of the Compound after 3 Months [1]: ≥95%

Compound: COc1cc(/C=C/C(=O)Oc2c(C)c(C)c3c(c2C)CCC(C)(CC/C=C(\C)CC/C=C(\C)CCC=C(C)C)O3)ccc1OC(=O)c1cccnc1 (stereo not drawn) [α-tocotrienyl ferulyl nicotinate]
Concentration of nicotinic acid in the permeate solution [2, 3]: 1.19 µg/mL
Concentration of nicotinic acid in the permeate solution [2, 4]: 2.96 µg/mL
% of the Compound after 3 Months [1]: 0%
Stability in the cosmetic formulation (in words) [1]: unstable even in cold storage conditions; also recorded: not stable

Compound: CC(C)=CCC/C(C)=C/CC/C(C)=C/CCC1(C)CCc2c(C)c(OC(=O)CNC(=O)c3cccnc3)c(C)c(C)c2O1 (stereo not drawn) [α-tocotrienyl glycinyl nicotinate]
Concentration of nicotinic acid in the permeate solution [2, 3]: 0.18 µg/mL
Concentration of nicotinic acid in the permeate solution [2, 4]: 0.38 µg/mL
% of the Compound after 3 Months [1]: ≥95%
Stability in the cosmetic formulation (in words) [1]: excellent stability

Compound: CC(C)=CCC/C(C)=C/CC/C(C)=C/CCC1(C)CCc2c(C)c(OC(=O)c3cccnc3)c(C)c(C)c2O1 (stereo not drawn) [α-tocotrienyl nicotinate]
Concentration of nicotinic acid in the permeate solution ([2]; donor solution 5% m/m, 24 hours, human skin, Franz cell): 0.32 µg/mL
Concentration of nicotinic acid in the permeate solution ([2]; donor solution 5% m/m, 33 hours, human skin, Franz cell): 0.54 µg/mL
Concentration of nicotinic acid in the permeate solution [2, 5]: 0.89 µg/mL
Concentration of nicotinic acid in the permeate solution [2, 6]: 2.83 µg/mL
Rate of conversion into the parent molecules relative to the other modified tocotrienols ([2]; human skin): higher rate
Release of nicotinic acid relative to α-tocopheryl nicotinate ([2]; human skin, Franz cell): faster
Release of nicotinic acid relative to γ-tocotrienyl nicotinate or δ-tocotrienyl nicotinate ([2]; human skin, Franz cell): three times faster
Rank of the nicotinic acid level in the permeate solutions [2]: highest level
% of the Compound after 3 Months [1]: ≥95%

Compound: CC(C)=CCC/C(C)=C/CC/C(C)=C/CC[C@]1(C)CCc2cc(O)c(C)c(C)c2O1 [γ-tocotrienol, reference compound]
% of the Compound after 3 Months [1]: 20%

Compound: CC(C)=CCC/C(C)=C/CC/C(C)=C/CCC1(C)CCc2cc(OC(=O)c3cccnc3)c(C)c(C)c2O1 (stereo not shown) [γ-tocotrienyl nicotinate]
Concentration of nicotinic acid in the permeate solution [2, 5]: 0.09 µg/mL
Concentration of nicotinic acid in the permeate solution [2, 6]: 0.70 µg/mL
% of the Compound after 3 Months [1]: ≥95%

Other lines, results leading:

% of the Compound after 3 Months [1]: 53%
Compound: CC(C)=CCC/C(C)=C/CC/C(C)=C/CC[C@]1(C)CCc2c(C)c(O)c(C)c(C)c2O1 [α-tocotrienol, reference compound]

Rate of conversion into the parent molecules relative to the other modified tocotrienols ([2]; human skin): higher rate
Concentration of nicotinic acid in the permeate solution [2, 3]: 3.02 µg/mL
Concentration of nicotinic acid in the permeate solution [2, 4]: 8.18 µg/mL
Rank of the nicotinic acid level in the permeate solutions [2]: highest level
% of the Compound after 3 Months [1]: ≥95%
Stability in the cosmetic formulation (in words) [1]: excellent stability
Compound: CC(C)=CCC/C(C)=C/CC/C(C)=C/CCC1(C)CCc2c(C)c(OC(=O)COC(=O)c3cccnc3)c(C)c(C)c2O1 (stereo not drawn) [α-tocotrienyl glycolyl nicotinate]

Remaining fraction of the initial mass after 3 months of accelerated aging [1]: > 95%
% of the Compound after 3 Months [1]: ≥95%
Compound: CC(C)=CCCC(C)=CCCC(C)=CCCC1(C)CCc2c(C)c(OC(=O)CCC(=O)OCc3cccnc3)c(C)c(C)c2O1 (stereo not drawn) [α-tocotrienyl nicotinyl succinate]

% of the Compound after 3 Months [1]: 57%
Compound: CC(C)=CCC/C(C)=C/CC/C(C)=C/CC[C@]1(C)CCc2cc(O)cc(C)c2O1 [δ-tocotrienol, reference compound]

% of the Compound after 3 Months [1]: ≥95%
Compound: CC(C)=CCCC(C)=CCCC(C)=CCCC1(C)CCc2cc(OC(=O)c3cccnc3)cc(C)c2O1 (stereo not shown) [δ-tocotrienyl nicotinate]
